Assay results reported in patent US20240382483A1, “HETEROCYCLIC EGFR INHIBITORS FOR USE IN THE TREATMENT OF CANCER” (Blueprint Medicines Corporation, priority 2021, published 2024).
Where a name gives a salt, the structure may show the parent alone. Read-outs that look alike come from different tables or passages of the source.

Assays:
[1] = molecular target: T1, intracellular phosphorylation of EGFR in NCI-H1975 cell line that harbors the EGFR L858R T790M mutations (Homo sapiens, UniProt P00533, L858R/T790M); experiment: NCI-H1975 pEGFR AlphaLISA assay; type: cell-based; details: NCI-H1975 cells (EGFR L858R T790M), p-EGFR (Tyr1068), 4-5 hours incubation
T1 construct: NCI-H1975 cell line that harbors the EGFR L858R T790M mutations (ATCC, CRL-5908); host or cells: NCI-H1975
Experimental: On the next day, the test compounds and DMSO control were added into H1975 cell plate followed by incubation at 37C/5% CO2 for 4-5 hours. […] Then 5 μL of a donor bead mix was added to each well followed by overnight incubation at room temperature in dark. On the next day, the plate was read at a compatible plate reader to obtain pEGFR signal. Percent of pEGFR inhibition was plotted against log concentration of compounds to generate IC50 values.

EGFR (L858R T790M C797S) = molecular target: T2, EGFR (L858R T790M C797S) (Homo sapiens, UniProt P00533, C797S/L858R/T790M); experiment: Biochemical EGFR inhibition assay (Caliper mobility shift), EGFR LRTMCS; details: LRTMCS (PH) IC50 (nM) @ 1 mM ATP (Num), EGFR LRTMCS mutant
T2 construct: purchased SignalChem E10-122VG
Outline: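 Kinase reactions at 25 °C run to 10–20% peptide phosphorylation, stopped with 35 mM EDTA. Phosphorylated product and substrate separated electrophoretically by mobility shift. Apparent IC50 from percent activity versus log compound concentration.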

[2] = read-out: Ext pEGFR H1975 GMean IC50 (nM) Protocol: @Pharmaron AlphaLISA (Num)

T1 sequence (P00533 25-1210 T790M/L858R): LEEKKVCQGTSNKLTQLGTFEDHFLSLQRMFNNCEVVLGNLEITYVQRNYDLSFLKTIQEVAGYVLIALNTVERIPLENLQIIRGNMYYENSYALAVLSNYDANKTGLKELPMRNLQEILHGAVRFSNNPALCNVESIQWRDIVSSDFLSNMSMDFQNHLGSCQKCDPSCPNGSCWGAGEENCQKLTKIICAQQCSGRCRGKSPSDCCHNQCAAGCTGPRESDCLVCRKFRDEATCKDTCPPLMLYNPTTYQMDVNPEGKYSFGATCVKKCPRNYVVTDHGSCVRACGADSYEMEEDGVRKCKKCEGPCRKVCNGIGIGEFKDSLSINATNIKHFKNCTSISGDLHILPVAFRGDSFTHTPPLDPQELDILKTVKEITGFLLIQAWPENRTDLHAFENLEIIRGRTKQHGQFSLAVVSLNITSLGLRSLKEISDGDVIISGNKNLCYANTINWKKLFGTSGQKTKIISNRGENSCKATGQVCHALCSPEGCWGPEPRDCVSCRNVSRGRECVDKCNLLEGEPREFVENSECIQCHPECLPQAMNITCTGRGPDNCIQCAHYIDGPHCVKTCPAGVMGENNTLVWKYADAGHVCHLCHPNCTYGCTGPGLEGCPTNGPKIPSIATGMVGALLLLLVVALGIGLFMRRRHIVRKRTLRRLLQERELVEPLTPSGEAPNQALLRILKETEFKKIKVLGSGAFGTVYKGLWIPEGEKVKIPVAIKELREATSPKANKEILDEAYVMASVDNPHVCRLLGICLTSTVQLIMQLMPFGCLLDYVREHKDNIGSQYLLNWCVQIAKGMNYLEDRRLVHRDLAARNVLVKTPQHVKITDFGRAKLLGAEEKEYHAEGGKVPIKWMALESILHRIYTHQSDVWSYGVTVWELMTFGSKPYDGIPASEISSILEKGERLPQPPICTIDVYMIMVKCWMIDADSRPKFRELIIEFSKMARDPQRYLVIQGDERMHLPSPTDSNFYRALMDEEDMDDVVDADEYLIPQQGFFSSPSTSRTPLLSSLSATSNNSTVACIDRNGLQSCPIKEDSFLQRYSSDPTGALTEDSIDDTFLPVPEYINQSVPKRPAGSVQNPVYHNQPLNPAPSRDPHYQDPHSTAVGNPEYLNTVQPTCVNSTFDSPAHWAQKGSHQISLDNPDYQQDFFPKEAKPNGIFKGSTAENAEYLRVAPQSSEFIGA
T2 sequence (P00533 25-1210 T790M/C797S/L858R): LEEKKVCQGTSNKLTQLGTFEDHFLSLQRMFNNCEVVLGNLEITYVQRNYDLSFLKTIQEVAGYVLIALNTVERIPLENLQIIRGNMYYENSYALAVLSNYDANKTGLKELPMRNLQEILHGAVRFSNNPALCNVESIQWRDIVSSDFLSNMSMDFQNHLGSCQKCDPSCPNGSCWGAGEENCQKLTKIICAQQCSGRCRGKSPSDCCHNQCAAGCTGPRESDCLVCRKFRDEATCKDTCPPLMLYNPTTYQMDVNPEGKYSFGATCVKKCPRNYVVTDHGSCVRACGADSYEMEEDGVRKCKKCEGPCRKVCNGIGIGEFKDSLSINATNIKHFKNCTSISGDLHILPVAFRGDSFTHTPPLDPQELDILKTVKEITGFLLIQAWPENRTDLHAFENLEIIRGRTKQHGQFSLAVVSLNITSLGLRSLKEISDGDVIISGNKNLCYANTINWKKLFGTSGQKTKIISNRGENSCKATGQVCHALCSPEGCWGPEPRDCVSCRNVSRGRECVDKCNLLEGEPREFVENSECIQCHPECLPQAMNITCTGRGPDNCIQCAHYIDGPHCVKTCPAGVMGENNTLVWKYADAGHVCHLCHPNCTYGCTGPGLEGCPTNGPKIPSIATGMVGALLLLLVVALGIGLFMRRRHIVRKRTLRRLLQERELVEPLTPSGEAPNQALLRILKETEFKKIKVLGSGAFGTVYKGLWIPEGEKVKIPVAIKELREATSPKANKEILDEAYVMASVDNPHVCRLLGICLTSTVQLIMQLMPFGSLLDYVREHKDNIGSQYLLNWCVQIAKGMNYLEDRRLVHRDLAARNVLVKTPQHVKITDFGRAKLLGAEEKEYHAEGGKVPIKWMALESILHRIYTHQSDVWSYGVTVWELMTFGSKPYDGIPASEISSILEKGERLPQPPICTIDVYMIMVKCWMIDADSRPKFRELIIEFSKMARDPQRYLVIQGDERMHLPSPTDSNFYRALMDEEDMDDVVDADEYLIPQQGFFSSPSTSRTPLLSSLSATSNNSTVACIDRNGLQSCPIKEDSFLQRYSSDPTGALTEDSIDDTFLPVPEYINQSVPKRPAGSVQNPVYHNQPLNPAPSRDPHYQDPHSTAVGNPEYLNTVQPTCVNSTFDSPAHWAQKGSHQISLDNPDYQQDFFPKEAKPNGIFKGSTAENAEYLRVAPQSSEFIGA

| SMILES | IC50 [1, 2] [nM] | IC50 (EGFR (L858R T790M C797S)) [nM] | IC50 ([1]; Ext pEGFR H1975 GMean IC50 (nM) Protocol: @Pharmaron AlphaLISA (Num)) [nM] |
| --- | --- | --- | --- |
| CC(C)c1cnc(N2C[C@](C)(O)[C@H]2C)c2cnc(Nc3ccnc(N4CC[C@@H](O)[C@@](C)(F)C4)n3)cc12 [Example 78, (3S,4R)-3-fluoro-1-(4-((8-((2R,3S)-3-hydroxy-2,3-dimethylazetidin-1-yl)-5-isopropyl-2,7-naphthyridin-3-yl)amino)pyrimidin-2-yl)-3-methylpiperidin-4-ol] | 20 to 30 | 15 to 20 |  |
| CO[C@H]1CCN(c2cc(Nc3cc4c(C(C)C)ccc(N5CC(n6ccnn6)C5)c4cn3)ccn2)C[C@@H]1O (single isomer, unassigned) [Example 127, (3S,4S)-1-(4-((8-(3-(1H-1,2,3-triazol-1-yl)azetidin-1-yl)-5-isopropylisoquinolin-3-yl)amino)pyridin-2-yl)-4-methoxypiperidin-3-ol or (3R,4R)-1-(4-((8-(3-(1H-1,2,3-triazol-1-yl)azetidin-1-yl)-5-isopropylisoquinolin-3-yl)amino)pyridin-2-yl)-4-methoxypiperidin-3-ol] | 10 to 20 | 15 to 20 |  |
| C[C@@H]1CCN1c1ncc([C@@H](C)OCC2COC2)c2cc(Nc3ccnc(N4CC[C@@H](O)[C@@](C)(F)C4)n3)ncc12 (single isomer, unassigned) [Example 184, (3S,4R)-3-fluoro-3-methyl-1-(4-((8-((R)-2-methylazetidin-1-yl)-5-((R)-1-(oxetan-3-ylmethoxy)ethyl)-2,7-naphthyridin-3-yl)amino)pyrimidin-2-yl)piperidin-4-ol or (3S,4R)-3-fluoro-3-methyl-1-(4-((8-((R)-2-methylazetidin-1-yl)-5-((S)-1-(oxetan-3-ylmethoxy)ethyl)-2,7-naphthyridin-3-yl)amino)pyrimidin-2-yl)piperidin-4-ol] | 30 to 50 | 20 to 30 |  |
| CC(C)c1ncc(-c2ccn(C)n2)c2cnc(Nc3ccnc(N4CC[C@@H](O)[C@@](C)(F)C4)n3)cc12 [Example 11, (3S,4R)-3-fluoro-1-(4-((5-isopropyl-8-(1-methyl-1H-pyrazol-3-yl)-2,6-naphthyridin-3-yl)amino)pyrimidin-2-yl)-3-methylpiperidin-4-ol] | 30 to 50 | 20 to 30 |  |
| CC(C)c1cnc(N2C[C@H](n3ccnn3)[C@H]2C)c2cnc(Nc3ccnc(N4CCC(C)(O)CC4)n3)cc12 [Example 130, 1-(4-((5-isopropyl-8-((2R,3S)-2-methyl-3-(1H-1,2,3-triazol-1-yl)azetidin-1-yl)-2,7-naphthyridin-3-yl)amino)pyrimidin-2-yl)-4-methylpiperidin-4-ol] | 20 to 30 | 15 to 20 |  |
| CC(C)c1cnc(-c2cnn(C3CN(C)C3)c2)c2cnc(Nc3ccnc(N4CC[C@@H](O)[C@@](C)(F)C4)n3)cc12 [Example 22, (3S,4R)-3-fluoro-1-(4-((5-isopropyl-8-(1-(1-methylazetidin-3-yl)-1H-pyrazol-4-yl)-2,7-naphthyridin-3-yl)amino)pyrimidin-2-yl)-3-methylpiperidin-4-ol] | > 50 | 15 to 20 |  |
| COC(=O)NCC1CN(c2ncc(C(C)C)c3cc(Nc4ccnc(N5CC[C@@H](O)[C@@](C)(F)C5)n4)ncc23)C1 [Example 84, methyl ((1-(6-((2-((3S,4R)-3-fluoro-4-hydroxy-3-methylpiperidin-1-yl)pyrimidin-4-yl)amino)-4-isopropyl-2,7-naphthyridin-1-yl)azetidin-3-yl)methyl)carbamate] | 20 to 30 | < 15 |  |
| CC(C)c1ccc(C2CN(S(C)(=O)=O)C2)c2cnc(Nc3ccnc(N4CC[C@@H](O)[C@@](C)(F)C4)n3)cc12 [Example 3, (3S,4R)-3-fluoro-1-(4-((5-isopropyl-8-(1-(methylsulfonyl)azetidin-3-yl)isoquinolin-3-yl)amino)pyrimidin-2-yl)-3-methylpiperidin-4-ol] | 20 to 30 | < 15 |  |

Now from value to compound:

| IC50 [1, 2] [nM] | IC50 (EGFR (L858R T790M C797S)) [nM] | IC50 ([1]; Ext pEGFR H1975 GMean IC50 (nM) Protocol: @Pharmaron AlphaLISA (Num)) [nM] | SMILES |
| --- | --- | --- | --- |
| < 10 | < 15 |  | CC(C)c1cnc(N2CC[C@H]2C)c2cnc(Nc3ccnc(N4CC[C@@H](OCCO)[C@@H](F)C4)n3)cc12 [Example 142, 2-(((3S,4R)-3-fluoro-1-(4-((5-isopropyl-8-((R)-2-methylazetidin-1-yl)-2,7-naphthyridin-3-yl)amino)pyrimidin-2-yl)piperidin-4-yl)oxy)ethan-1-ol] |
| 30 to 50 | < 15 |  | CC(C)c1cnc(N2CCC23CN(C)C3)c2cnc(Nc3ccnc(N4CC[C@@H](O)[C@@](C)(F)C4)n3)cc12 [Example 192, (3S,4R)-3-fluoro-1-(4-((5-isopropyl-8-(6-methyl-1,6-diazaspiro[3.3]heptan-1-yl)-2,7-naphthyridin-3-yl)amino)pyrimidin-2-yl)-3-methylpiperidin-4-ol trifluoroacetate] |
| 10 to 20 | < 15 |  | CC(C)c1cnc(N2CC3(CCS3(=O)=O)C2)c2cnc(Nc3ccnc(N4C[C@@H](F)[C@@H](O)C(C)(C)C4)n3)cc12 (single isomer, unassigned) [Example 132, 6-(6-((2-((4S,5R)-5-fluoro-4-hydroxy-3,3-dimethylpiperidin-1-yl)pyrimidin-4-yl)amino)-4-isopropyl-2,7-naphthyridin-1-yl)-1-thia-6-azaspiro[3.3]heptane 1,1-dioxide or 6-(6-((2-((4R,5S)-5-fluoro-4-hydroxy-3,3-dimethylpiperidin-1-yl)pyrimidin-4-yl)amino)-4-isopropyl-2,7-naphthyridin-1-yl)-1-thia-6-azaspiro[3.3]heptane 1,1-dioxide] |
| 10 to 20 | < 15 |  | CO[C@@H]1CCN(c2nccc(Nc3cc4c(C(C)C)cnc(N5C[C@H](O)[C@H]5C)c4cn3)n2)C[C@@H]1O (single isomer, unassigned) [Example 122, (3S,4R)-1-(4-((8-((2R,3S)-3-hydroxy-2-methylazetidin-1-yl)-5-isopropyl-2,7-naphthyridin-3-yl)amino)pyrimidin-2-yl)-4-methoxypiperidin-3-ol or (3R,4S)-1-(4-((8-((2R,3S)-3-hydroxy-2-methylazetidin-1-yl)-5-isopropyl-2,7-naphthyridin-3-yl)amino)pyrimidin-2-yl)-4-methoxypiperidin-3-ol] |
|  | < 15 | 30 to 50 | C[C@@H]1CCN1c1ncc(-c2cccnc2F)c2cc(Nc3ccnc(N4CC[C@@H](O)[C@@H](F)C4)n3)ncc12 (single isomer, unassigned) [Example 161, (3S,4R)-3-fluoro-1-(4-((5-(2-fluoropyridin-3-yl)-8-((R)-2-methylazetidin-1-yl)-2,7-naphthyridin-3-yl)amino)pyrimidin-2-yl)piperidin-4-ol or (3S,4R)-3-fluoro-1-(4-((5-(2-fluoropyridin-3-yl)-8-((S)-2-methylazetidin-1-yl)-2,7-naphthyridin-3-yl)amino)pyrimidin-2-yl)piperidin-4-ol] |
| < 10 | < 15 |  | CO[C@@H]1CCN(c2nccc(Nc3cc4c(C(C)C)cnc(N5C[C@H](O)[C@H]5C)c4cn3)n2)C[C@@H]1F [Example 150, (2R,3S)-1-(6-((2-((3S,4R)-3-fluoro-4-methoxypiperidin-1-yl)pyrimidin-4-yl)amino)-4-isopropyl-2,7-naphthyridin-1-yl)-2-methylazetidin-3-ol] |
| 30 to 50 | < 15 |  | Cc1nc(-c2ncc(C(C)C)c3cc(Nc4ccnc(N5CC[C@@H](O)[C@@](C)(F)C5)n4)ncc23)n[nH]1 [Example 24, (3S,4R)-3-fluoro-1-(4-((5-isopropyl-8-(5-methyl-1H-1,2,4-triazol-3-yl)-2,7-naphthyridin-3-yl)amino)pyrimidin-2-yl)-3-methylpiperidin-4-ol] |
| < 10 | < 15 |  | CNCCO[C@H]1CCN(c2nccc(Nc3cc4c(C(C)C)cnc(N5CC[C@H]5C)c4cn3)n2)C[C@H]1F [Example 200, N-(2-((3R,4S)-3-fluoro-4-(2-(methylamino)ethoxy)piperidin-1-yl)pyrimidin-4-yl)-5-isopropyl-8-((R)-2-methylazetidin-1-yl)-2,7-naphthyridin-3-amine] |
| 10 to 20 | < 15 |  | CO[C@H]1CN(c2ncc([C@@H](C)CO)c3cc(Nc4ccnc(N5CC[C@@H](O)[C@@](C)(F)C5)n4)ncc23)[C@@H]1C (single isomer, unassigned) [Example 212, (3S,4R)-3-fluoro-1-(4-((5-((R)-1-hydroxypropan-2-yl)-8-((2R,3S)-3-methoxy-2-methylazetidin-1-yl)-2,7-naphthyridin-3-yl)amino)pyrimidin-2-yl)-3-methylpiperidin-4-ol or (3S,4R)-3-fluoro-1-(4-((5-((S)-1-hydroxypropan-2-yl)-8-((2R,3S)-3-methoxy-2-methylazetidin-1-yl)-2,7-naphthyridin-3-yl)amino)pyrimidin-2-yl)-3-methylpiperidin-4-ol] |
